Reference: patent US20210186960A1, “MODULATORS OF INDOLEAMINE 2,3-DIOXYGENASE” (GLAXOSMITHKLINE INTELLECTUAL PROPERTY DEVELOPMENT LIMITED, priority 2017, published 2021)
Where two headings read alike, the source gives them in different places.

Test: Plasma PK and tissue distribution after oral dosing of INTERMEDIATE C4 (3 mg/kg)
Type: in vivo
Conditions: PO 3 mg/kg INTERMEDIATE C4, male Wistar Han rat; for Kp at 1 h / Kp at 4 h / Kp at 8 h / Kp / concentration at 1 h / concentration at 4 h / concentration at 8 h: male, Wistar Han, rat, po
Procedure: Tissue Distribution of drug intermediate C4 from oral dosing of C4 and of intermediate C4 from oral dosing of example 7 in rats
• Wistar Han rat, 185-197 g, male, N=8, purchased from Beijing Vital River Co. LTD. Qualification No.: SCXK(J) 2016-0011 11400700240027. Fasted overnight and fed 4 hr post dose. PO: 3 mg/kg (10 mL/kg) via oral gavage(N=8). Sampling at 1, 4, 8 and 24 hr , 4 time points, terminal bleeding for plasma, liver, lymph nodes and spleen collected at each time point.

SMILES: CC(C)CN(c1ccc([C@H](C)CC(=O)O)cc1Nc1cnc(Cl)cn1)C1CCOCC1 [intermediate C4]
- Liver to plasma ratio individual (1 hr, 3 mg/kg): 8.11
- Lymph node to plasma ratio individual (1 hr, 3 mg/kg): 0.254
- Spleen to plasma ratio individual (1 hr, 3 mg/kg): 0.197
- liver Concentration individual (1 hr, 3 mg/kg): 2570 ng/g
- lymph node Concentration individual (1 hr, 3 mg/kg): 80.4 ng/g
- plasma Concentration individual (1 hr, 3 mg/kg): 317 ng/mL
- spleen Concentration individual (1 hr, 3 mg/kg): 62.4 ng/g
- Liver to plasma ratio individual (4 hr, 3 mg/kg): 14.7
- Lymph node to plasma ratio individual (4 hr, 3 mg/kg): 0.905
- Spleen to plasma ratio individual (4 hr, 3 mg/kg): 0.333
- liver Concentration individual (4 hr, 3 mg/kg): 898 ng/g
- lymph node Concentration individual (4 hr, 3 mg/kg): 55.4 ng/g
- plasma Concentration individual (4 hr, 3 mg/kg): 61.2 ng/mL
- spleen Concentration individual (4 hr, 3 mg/kg): 20.4 ng/g
- spleen Concentration Mean (8 hr): BQL
- spleen Concentration individual (8 hr): BQL
- Liver to plasma ratio individual (8 hr, 3 mg/kg): 13.2
- liver Concentration individual (8 hr, 3 mg/kg): 299 ng/g
- lymph node Concentration individual (8 hr, 3 mg/kg): BQL
- plasma Concentration individual (8 hr, 3 mg/kg): 22.7 ng/mL
- liver Concentration Mean (24 hr): BQL
- liver Concentration individual (24 hr): BQL
- lymph node Concentration Mean (24 hr): BQL
- lymph node Concentration individual (24 hr): BQL
- plasma Concentration Mean (24 hr): BQL
- plasma Concentration individual (24 hr): BQL
- spleen Concentration Mean (24 hr): BQL
- spleen Concentration individual (24 hr): BQL
- AUC(0-t) (liver, read-out: AUClast (liver)): 10200 ng·h/mL
- AUC(0-t) (lymph node, read-out: AUClast (lymph node)): 381 ng·h/mL
- Kp at 1 h (liver / plasma, 3 mg/kg, 1 hr, read-out: Liver to plasma ratio Mean): 9.31
- Kp at 1 h (liver / plasma, 3 mg/kg, 1 hr, read-out: Liver to plasma ratio individual): 10.5
- Kp at 4 h (liver / plasma, 3 mg/kg, 4 hr, read-out: Liver to plasma ratio Mean): 13.7
- Kp at 4 h (liver / plasma, 3 mg/kg, 4 hr, read-out: Liver to plasma ratio individual): 12.7
- Kp at 8 h (liver / plasma, 3 mg/kg, 8 hr, read-out: Liver to plasma ratio Mean): 14.6
- Kp at 8 h (liver / plasma, 3 mg/kg, 8 hr, read-out: Liver to plasma ratio individual): 16
- Kp (liver / plasma, 3 mg/kg, read-out: AUCliver/AUCplasma): 10.7
- concentration at 1 h (liver, 3 mg/kg, 1 hr, read-out: liver Concentration Mean): 3130 ng/g
- concentration at 1 h (liver, 3 mg/kg, 1 hr, read-out: liver Concentration individual): 3690 ng/g
- concentration at 4 h (liver, 3 mg/kg, 4 hr, read-out: liver Concentration Mean): 883 ng/g
- concentration at 4 h (liver, 3 mg/kg, 4 hr, read-out: liver Concentration individual): 868 ng/g
- concentration at 8 h (liver, 3 mg/kg, 8 hr, read-out: liver Concentration Mean): 420 ng/g
- concentration at 8 h (liver, 3 mg/kg, 8 hr, read-out: liver Concentration individual): 540 ng/g
- Kp at 1 h (lymph node / plasma, 3 mg/kg, 1 hr, read-out: Lymph node to plasma ratio Mean): 0.293
- Kp at 1 h (lymph node / plasma, 3 mg/kg, 1 hr, read-out: Lymph node to plasma ratio individual): 0.333
- Kp at 4 h (lymph node / plasma, 3 mg/kg, 4 hr, read-out: Lymph node to plasma ratio Mean): 0.716
- Kp at 4 h (lymph node / plasma, 3 mg/kg, 4 hr, read-out: Lymph node to plasma ratio individual): 0.526
- Kp at 8 h (lymph node / plasma, 3 mg/kg, 8 hr, read-out: Lymph node to plasma ratio Mean): 0.353
- Kp at 8 h (lymph node / plasma, 3 mg/kg, 8 hr, read-out: Lymph node to plasma ratio individual): 0.353
- Kp (lymph node / plasma, 3 mg/kg, read-out: AUClimphnode/AUCplasma): 0.401
- concentration at 1 h (lymph node, 3 mg/kg, 1 hr, read-out: lymph node Concentration Mean): 98.7 ng/g
- concentration at 1 h (lymph node, 3 mg/kg, 1 hr, read-out: lymph node Concentration individual): 117 ng/g
- concentration at 4 h (lymph node, 3 mg/kg, 4 hr, read-out: lymph node Concentration Mean): 45.7 ng/g
- concentration at 4 h (lymph node, 3 mg/kg, 4 hr, read-out: lymph node Concentration individual): 35.9 ng/g
- concentration at 8 h (lymph node, 3 mg/kg, 8 hr, read-out: lymph node Concentration Mean): 11.9 ng/g
- concentration at 8 h (lymph node, 3 mg/kg, 8 hr, read-out: lymph node Concentration individual): 11.9 ng/g
- concentration at 1 h (plasma, 3 mg/kg, 1 hr, read-out: plasma Concentration Mean): 334 ng/mL
- concentration at 1 h (plasma, 3 mg/kg, 1 hr, read-out: plasma Concentration individual): 351 ng/mL
- concentration at 4 h (plasma, 3 mg/kg, 4 hr, read-out: plasma Concentration Mean): 64.7 ng/mL
- concentration at 4 h (plasma, 3 mg/kg, 4 hr, read-out: plasma Concentration individual): 68.2 ng/mL
